From PubChem BioAssay AID248 (DTP/NCI, 2004) come the findings set out here.

Where “and” joins values, the source holds several entries; their conditions need not be identical. Identical values can stand only once. Inconclusive results and toxic doses are left out.

The test system of this test is L1210 leukemia ip in BDF1 mice, survival T/C. In words: NCI In Vivo Anticancer Drug Screen. Data for tumor model L1210 Leukemia (intraperitoneal) in B6D2F1 (BDF1) mice. The conditions noted are these: endpoint: mean survival time, higher = longer survival. The gist of the method:
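Ratio derived from survival: compound-dosed mice over vehicle-dosed mice, all bearing a transplantable tumor.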

The mark [1] stands for this setting: dose: 50.0 mg/kg/injection, schedule: Q01DX009 (ip), vehicle: saline with Tween-80.
The mark [2] stands for this setting: dose: 100.0 mg/kg/injection, schedule: Q01DX009 (ip), vehicle: Klucel (hydroxypropylcellulose) (HPC).
Where [3] appears, read: dose: 200.0 mg/kg/injection, schedule: Q01DX009 (ip), vehicle: Klucel (hydroxypropylcellulose) (HPC).
Where [4] appears, read: dose: 400.0 mg/kg/injection, schedule: Q01DX009 (ip), vehicle: Klucel (hydroxypropylcellulose) (HPC).
Where [5] appears, read: dose: 100.0 mg/kg/injection, schedule: Q04DX003 (ip), vehicle: saline with Tween-80.
[6] abbreviates: dose: 200.0 mg/kg/injection, schedule: Q04DX003 (ip), vehicle: saline with Tween-80.
Setting [7] is: dose: 100.0 mg/kg/injection, schedule: Q01DX009 (ip), vehicle: saline with Tween-80.
Where [8] appears, read: dose: 200.0 mg/kg/injection, schedule: Q01DX009 (ip), vehicle: saline with Tween-80.
Where [9] appears, read: dose: 100.0 mg/kg/injection, schedule: Q01DX009 (ip), vehicle: other.
The mark [10] stands for this setting: dose: 200.0 mg/kg/injection, schedule: Q01DX009 (ip), vehicle: other.
[11] abbreviates: dose: 400.0 mg/kg/injection, schedule: Q01DX009 (ip), vehicle: other.
Setting [12] is: dose: 200.0 mg/kg/injection, schedule: Q01DX001 (ip), vehicle: other.
[13] abbreviates: dose: 50.0 mg/kg/injection, schedule: Q01DX001 (ip), vehicle: saline.
Where [14] appears, read: dose: 100.0 mg/kg/injection, schedule: Q01DX001 (ip), vehicle: saline.
[15] abbreviates: dose: 200.0 mg/kg/injection, schedule: Q01DX001 (ip), vehicle: saline.
Where [16] appears, read: dose: 400.0 mg/kg/injection, schedule: Q01DX001 (ip), vehicle: saline.

On to `CCCCCCCCC1N(C)CCCN1C`, for which the T/C (dose: 12.5 mg/kg/injection, schedule: Q01DX009 (ip), vehicle: saline with Tween-80) is 98 % of control; the T/C (dose: 25.0 mg/kg/injection, schedule: Q01DX001 (ip), vehicle: saline with Tween-80) is 105 % of control; the T/C (dose: 25.0 mg/kg/injection, schedule: Q01DX009 (ip), vehicle: saline with Tween-80) is 86 % of control; the T/C (dose: 50.0 mg/kg/injection, schedule: Q01DX001 (ip), vehicle: saline with Tween-80) is 105 % of control; the T/C under setting [1] was 98 % of control and 101 % of control; the T/C (dose: 100.0 mg/kg/injection, schedule: Q01DX001 (ip), vehicle: saline with Tween-80) is 97 % of control and 101 % of control.
For `COC(=O)C1=C(C(=O)OC)C2(C)OC1C1OC12` (stereo unspecified), the T/C (dose: 12.5 mg/kg/injection, schedule: Q01DX009 (ip), vehicle: Klucel (hydroxypropylcellulose) (HPC)) was 97 % of control and the T/C (dose: 25.0 mg/kg/injection, schedule: Q01DX009 (ip), vehicle: Klucel (hydroxypropylcellulose) (HPC)) was 90 % of control.
In the case of `COc1ccccc1/C(=C/c1ccc([N+](=O)[O-])cc1)C(=O)Nc1ccc(S(=O)(=O)F)cc1`, the T/C is 103 % of control under setting [2], 92 % of control under setting [3] and 100 % of control under setting [4].
Take `Cc1c(N)c(C)c([N+](=O)[O-])c(C)c1N`: the T/C under setting [5] is 91 % of control; the T/C under setting [6] was 98 % of control; the T/C (dose: 400.0 mg/kg/injection, schedule: Q04DX003 (ip), vehicle: saline with Tween-80) is 98 % of control.
Take `CCC(=O)Nc1ccc(Cl)cc1OC`: the T/C was 100 % of control under setting [2], 102 % of control under setting [3] and 100 % of control under setting [4].
Take `O=C(C[n+]1ccccc1)N/N=C/c1ccc(O)c(O)c1`: the T/C reads like this: under setting [1], 104 % of control; under setting [7], 106 % of control; under setting [5], 110 % of control; under setting [8], 117 % of control; under setting [6], 110 % of control.
Regarding `COc1cc(C=Nc2cc(Br)cc(Br)c2)ccc1N(CCCl)CCCl`, the T/C was 113 % of control (dose: 1.31 mg/kg/injection, schedule: Q01DX009 (ip), vehicle: other); 104 % of control (dose: 2.62 mg/kg/injection, schedule: Q01DX009 (ip), vehicle: other); 106 % of control (dose: 12.5 mg/kg/injection, schedule: Q01DX001 (ip), vehicle: other); 120 % of control (dose: 25.0 mg/kg/injection, schedule: Q01DX001 (ip), vehicle: other); 124 % of control (dose: 50.0 mg/kg/injection, schedule: Q01DX009 (ip), vehicle: other); 123 % of control (dose: 118.0 mg/kg/injection, schedule: Q01DX001 (ip), vehicle: carboxymethylcellulose (CMC)). Moreover, the T/C (dose: 177.0 mg/kg/injection, schedule: Q01DX001 (ip), vehicle: carboxymethylcellulose (CMC)) was 94 % of control and 108 % of control; the T/C (dose: 200.0 mg/kg/injection, schedule: Q01DX001 (ip), vehicle: carboxymethylcellulose (CMC)) is 124 % of control; the T/C (dose: 266.0 mg/kg/injection, schedule: Q01DX001 (ip), vehicle: carboxymethylcellulose (CMC)) is 88 % of control; the T/C (dose: 400.0 mg/kg/injection, schedule: Q01DX001 (ip), vehicle: carboxymethylcellulose (CMC)) is 179 % of control.
For the compound `O=C(Nc1ccc(Cl)cc1C(F)(F)F)OCCOc1ccc([N+](=O)[O-])cc1`, the T/C reads like this: under setting [7], 91 % of control; under setting [8], 94 % of control; (dose: 400.0 mg/kg/injection, schedule: Q01DX009 (ip), vehicle: saline with Tween-80) 95 % of control.
For the compound `CC(=O)c1cccc(NC(=O)Oc2ccc(Cl)cc2Cc2ccccc2)c1`, the T/C runs as follows: under setting [2], 101 % of control; under setting [3], 101 % of control; under setting [4], 95 % of control.
For the compound `CNC(=O)Oc1ccc2ccccc2c1`, the T/C runs as follows: under setting [9], 101 % of control; under setting [10], 104 % of control; under setting [11], 93 % of control.
As for `CSc1ccc(NC(=O)Nc2cccc(C(C)=O)c2)cc1`, the T/C by setting is: under setting [2], 97 % of control; under setting [3], 94 % of control; under setting [4], 91 % of control.
Take `CCOP(=S)(NCCCOC)OCC`: the T/C runs as follows: (dose: 100.0 mg/kg/injection, schedule: Q01DX001 (ip), vehicle: other) 94 % of control; under setting [9], 92 % of control; (dose: 100.0 mg/kg/injection, schedule: Q04DX003 (ip), vehicle: other) 87 % of control; under setting [12], 93 % of control; under setting [10], 93 % of control; (dose: 200.0 mg/kg/injection, schedule: Q04DX003 (ip), vehicle: other) 92 % of control. The T/C (dose: 400.0 mg/kg/injection, schedule: Q01DX001 (ip), vehicle: other) is 98 % of control; the T/C under setting [11] is 88 % of control; the T/C (dose: 400.0 mg/kg/injection, schedule: Q04DX003 (ip), vehicle: other) was 93 % of control.
On to `OC1C(Br)C2C3CC4C(C13)C42` (stereo unspecified), for which the T/C by setting is: (dose: 50.0 mg/kg/injection, schedule: Q04DX002 (ip), vehicle: Klucel (hydroxypropylcellulose) (HPC)) 97 % of control; (dose: 100.0 mg/kg/injection, schedule: Q04DX002 (ip), vehicle: Klucel (hydroxypropylcellulose) (HPC)) 89 % of control; (dose: 200.0 mg/kg/injection, schedule: Q04DX002 (ip), vehicle: Klucel (hydroxypropylcellulose) (HPC)) 93 % of control.
Regarding `COC1=CCC(OC)=C(C)C1`, the T/C (dose: 150.0 mg/kg/injection, schedule: Q01DX009 (ip), vehicle: saline) is 95 % of control and the T/C (dose: 225.0 mg/kg/injection, schedule: Q01DX009 (ip), vehicle: saline) was 94 % of control.
`O=c1[nH]nc(-c2ccccc2)c2ccccc12`: the T/C by setting is: under setting [13], 100 % of control; under setting [14], 97 % of control; under setting [15], 93 % of control; under setting [16], 100 % of control.
In the case of `CCOC(=O)Cc1ccc([N+](=O)[O-])cc1`, the T/C (dose: 25.0 mg/kg/injection, schedule: Q04DX003 (ip), vehicle: Klucel (hydroxypropylcellulose) (HPC)) is 94 % of control; the T/C (dose: 50.0 mg/kg/injection, schedule: Q04DX003 (ip), vehicle: Klucel (hydroxypropylcellulose) (HPC)) is 105 % of control; the T/C (dose: 100.0 mg/kg/injection, schedule: Q04DX003 (ip), vehicle: Klucel (hydroxypropylcellulose) (HPC)) was 104 % of control and 105 % of control; the T/C (dose: 150.0 mg/kg/injection, schedule: Q04DX003 (ip), vehicle: Klucel (hydroxypropylcellulose) (HPC)) was 107 % of control; the T/C (dose: 225.0 mg/kg/injection, schedule: Q04DX003 (ip), vehicle: Klucel (hydroxypropylcellulose) (HPC)) is 100 % of control.
In the case of `CCC[CH2][Pb]([Cl])([Cl])[CH2]CCC`, the T/C is, setting by setting: (dose: 5.0 mg/kg/injection, schedule: Q01DX001 (ip), vehicle: carboxymethylcellulose (CMC)) 95 % of control; (dose: 20.0 mg/kg/injection, schedule: Q01DX001 (ip), vehicle: carboxymethylcellulose (CMC)) 108 % of control; (dose: 40.0 mg/kg/injection, schedule: Q01DX001 (ip), vehicle: carboxymethylcellulose (CMC)) 97 % of control; (dose: 100.0 mg/kg/injection, schedule: Q01DX001 (ip), vehicle: carboxymethylcellulose (CMC)) 103 % of control.
Turning to `CS(=O)(=O)OCCN(CCOS(C)(=O)=O)c1ccc(/C=N/Nc2ncnc3nc[nH]c23)cc1`, the T/C (dose: 12.5 mg/kg/injection, schedule: Q01DX009 (ip), vehicle: saline) is 124 % of control; the T/C under setting [13] was 119 % of control; the T/C (dose: 89.0 mg/kg/injection, schedule: Q01DX001 (ip), vehicle: other) is 105 % of control; the T/C under setting [14] is 107 % of control; the T/C (dose: 100.0 mg/kg/injection, schedule: Q01DX009 (ip), vehicle: saline) is 98 % of control; the T/C (dose: 133.0 mg/kg/injection, schedule: Q01DX001 (ip), vehicle: other) is 110 % of control. The T/C reads like this: under setting [12], 103 % of control; under setting [15], 119 % of control; (dose: 300.0 mg/kg/injection, schedule: Q01DX001 (ip), vehicle: other) 114 % of control; under setting [16], 113 % of control.
